Reference: patent US20250059074A1, “ANTIMICROBIAL SYSTEM AND METHOD” (KEMIRA OYJ, priority 2021, published 2025)

Tested on: Pseudoxanthomonas taiwanensis biofilm
Assay: Biofilm test in 96-microwell plates with peg lids, Crystal Violet quantification
Type: cell-based
Conditions: for Impact (biofilm reduction percentage vs no added chemicals): 45° C., 150 rpm
Source text: Authentic cooling water was obtained from a cooling water system in Germany. Proteobacteria are commonly found from cooling waters (Water Research 159 (2019): 464-479). In the biofilm-experiments the test water was spiked with Pseudoxanthomonas taiwanensis, a biofilm-forming species belonging to the phylum Proteobacter. Biofilm tests were done in simulated cooling water, SCW (prepared according to Marziya Rizvi et al., Nature Scientific Reports | (2021) 11:8353) using 96-microwell plate wells with peg lids (Thermo Fischer Scientific Inc., USA). Plates were incubated at 45° C. with a rotary shaking (150 rpm) providing high flow in each well. Wells of 96-microwell plates with peg-lids were filled with 10% authentic cooling water, 89% SCW and 1% of pure culture of Pseudoxanthomonas taiwanensis. Biofilm was grown at 45° C. with a rotary shaking (150 rpm) for 24 hours without addition of any chemical compound to be tested. After 24 hours from starting the test, the wells were emptied and a fresh solution comprising 10% authentic cooling water, 89% SCW and 1% of pure culture of Pseudoxanthomonas taiwanensis with different amounts of chemical compounds to be tested were added and the original peg-lid was placed back in place. After an additional 24 hours the wells were emptied and the biofilm amount on the pegs was quantified. The amount of biofilm formed on the peg surfaces was quantified with a staining solution by adding 200 μl of 1% Crystal Violet (Merck Millipore KGaA, Germany) in methanol to each well in a clean 96-well plate and placing the biofilm-containing peg-lid on it. After 3 minutes the wells were emptied and the wells and pegs were rinsed 3 times with tap water. Finally the peg-lid was placed in a clean 96-well plate, the attached Crystal Violet was dissolved into ethanol and the absorbance at 595 nm was measured. All parts per million (ppm) amounts given in Example 1 are as active ingredients. The Impact values are calculated as biofilm reduction percentages based on a comparison with no added chemicals. A positive value indicates a reduction in amount of biofilm whereas a negative value indicates an increase in the amount of biofilm. […] Biofilm was stained and quantified by absorbance measurement. Dosages are given as active ingredients.

Q: With `OCl` [Sodium hypochlorite] as the compound, how does the “Impact (biofilm reduction percentage vs no added chemicals)” value (Sodium hypochlorite 2 ppm alone, authentic cooling water+SCW+P. taiwanensis, 24 h on pre-grown biofilm, negative = increase) read?
A: Its value is −30%.

Q: What about the “Impact (biofilm reduction percentage vs no added chemicals)” value (Sodium hypochlorite 4 ppm alone, 24 h, negative = increase) of the same compound?
A: The value was −27%.

Q: What about the “Impact (biofilm reduction percentage vs no added chemicals)” value (Sodium hypochlorite 8 ppm alone, 24 h, negative = increase) of the same compound?
A: The value was −25%.

Q: What about the “Impact (biofilm reduction percentage vs no added chemicals)” value (Sodium hypochlorite 12 ppm alone, 24 h, negative = increase) of the same compound?
A: The value was −10%.

Q: What about the “Impact (biofilm reduction percentage vs no added chemicals)” value (Sodium hypochlorite 16 ppm alone, 24 h) of the same compound?
A: Its value is 6%.

Q: And the “Dosage required to reach noticeable biofilm reduction efficacy” value (Sodium hypochlorite on its own, as active compound)?
A: Its value is 16 ppm.

Q: How did the “Impact (biofilm reduction percentage vs no added chemicals)” value (Compound A 0.15 ppm alone, 24 h, negative = increase) turn out when `Cc1ccc(S(=O)(=O)C=CC#N)cc1` [Compound A, 3-[(4-methylphenyl)sulphonyl]-2-propenenitrile] was run?
A: Its value is −19%.

Q: What about the “Impact (biofilm reduction percentage vs no added chemicals)” value (Compound A 0.30 ppm alone, 24 h) of the same compound?
A: Its value is 2%.

Q: And the “Impact (biofilm reduction percentage vs no added chemicals)” value (Compound A 0.45 ppm alone, 24 h)?
A: The value was 8%.
